Among the test systems are UACC-62; LOX IMVI; SK-MEL-2; SNB-75; MDA-N; M14; Hs-578T; MOLT-4; HCC 2998; COLO 205; T47D; KM12; EKVX; NCI-H522; OVCAR-3; SF-539; U-251; NCI-H226; SK-OV-3; NCI/ADR-RES.
Assay in all cases: inhibition of tumour cell growth, NCI panel, 48 h

Ten compounds from ChEMBL document CHEMBL1201862, “PubChem BioAssay data set” (2004) can be followed below.

Molecules are shown by their SMILES.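 Results reflect a 48-hour exposure of cells in 96-well plates to compound at five concentrations. GI50 marks 50% less growth.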 Active and inactive are the calls of the source. Rule as the data show it: active = GI50 up to about 1.1 µM and inactive = higher. Where a SMILES comes first, the peptide text is derived from it. [ ]: non-standard residue; d: D form. The star is where a group is joined. Bn2Val = CC(C)[C@@H](C(=O)*)N(Cc1ccccc1)Cc1ccccc1; NH(4-F-benzyl) = Fc1ccc(CN*)cc1; NMeV = CN[C@H](C(=O)O)C(C)C; dNMeA = CN[C@H](C)C(=O)O Where only a bound is given, the exact number is not on record here.

Turning to `CC(C)[C@H](NC(=O)[C@H](C(C)C)N(Cc1ccccc1)Cc1ccccc1)C(=O)N(C)[C@H](C(=O)N1CCC[C@H]1C(=O)N(C)[C@H](C)C(=O)NCc1ccc(F)cc1)C(C)C` (Bn2Val-V[NMeV]P[dNMeA]-{NH(4-F-benzyl)}), the GI50 in the assay with UACC-62 is 2.96 µM (inactive); with LOX IMVI, 1.85 µM (inactive); with SK-MEL-2, 2.12 µM (inactive); in the assay with SNB-75, 4.07 µM (inactive); in the assay on MDA-N it was 4.29 µM (inactive); in the assay with M14, 3.05 µM (inactive). The GI50 in the assay on Hs-578T is 4.5 µM (inactive); with MOLT-4, 2.55 µM (inactive); in the assay on HCC 2998, 3.48 µM (inactive); with COLO 205 it was 1.74 µM (inactive); in the assay with T47D it was 3.82 µM (inactive); in the assay on KM12, 4.24 µM (inactive). Besides, the GI50 in the assay with EKVX was 3.09 µM (inactive); in the assay on NCI-H522, 3.01 µM (inactive); with OVCAR-3, 2.88 µM (inactive); in the assay on SF-539 it was 2.71 µM (inactive); in the assay on U-251, 3.3 µM (inactive); in the assay on NCI-H226 it was 2.65 µM (inactive). Further, the GI50 with SK-OV-3 is 5.35 µM (inactive); in the assay on NCI/ADR-RES, 4.38 µM (inactive).

With `CC(C)Cn1cnc2c(NCC(C)O)nc3ccccc3c21` (stereo not given), the GI50 in the assay on UACC-62 is 52.2 µM (inactive); in the assay on LOX IMVI, 42.6 µM (inactive); in the assay on SK-MEL-2 it was > 100 µM (inactive); in the assay with SNB-75, 56.1 µM (inactive); in the assay on MDA-N it was > 100 µM (inactive); in the assay on M14 it was > 100 µM (inactive). In addition, the GI50 in the assay with Hs-578T was 45.7 µM (inactive); in the assay on MOLT-4 it was 63.2 µM (inactive); in the assay with HCC 2998, > 100 µM (inactive); in the assay with COLO 205 it was 51.1 µM (inactive); in the assay with T47D, > 100 µM (inactive); with KM12, > 100 µM (inactive). For the same compound, the GI50 in the assay with EKVX was 29 µM (inactive); in the assay with NCI-H522, > 100 µM (inactive); with OVCAR-3 it was > 100 µM (inactive); with SF-539, > 100 µM (inactive); with U-251, > 100 µM (inactive); in the assay with NCI-H226, > 100 µM (inactive). For the same compound, the GI50 in the assay on SK-OV-3 and in the assay with NCI/ADR-RES was > 100 µM (inactive) each time.

Take `CC(C)COP(=O)(OCC(C)C)C(NS(=O)(=O)c1ccccc1)(C(F)(F)F)C(F)(F)F`: the GI50 was 4.81 µM (inactive) in the assay on UACC-62; 3.57 µM (inactive) in the assay with LOX IMVI; 3.4 µM (inactive) in the assay with SK-MEL-2; 2.91 µM (inactive) in the assay with SNB-75; 5.51 µM (inactive) in the assay on MDA-N; 12.8 µM (inactive) in the assay on M14. Besides, the GI50 is 9.33 µM (inactive) with Hs-578T; 1.41 µM (inactive) in the assay on MOLT-4; 5.13 µM (inactive) with HCC 2998; 1.94 µM (inactive) with COLO 205; 3.38 µM (inactive) in the assay on T47D; 3.93 µM (inactive) in the assay on KM12. For the same compound, the GI50 is 4.91 µM (inactive) in the assay on EKVX; 4.05 µM (inactive) with NCI-H522; 4.82 µM (inactive) in the assay on OVCAR-3; 8.34 µM (inactive) with SF-539; 3.77 µM (inactive) in the assay on U-251; 16.9 µM (inactive) in the assay with NCI-H226. For the same compound, the GI50 with SK-OV-3 is 5.47 µM (inactive); with NCI/ADR-RES, 4.13 µM (inactive).

In the case of `COc1ccc(CNC(=O)[C@H](Cc2ccc(O)cn2)NC(C)=O)cc1OC`, the GI50 with UACC-62, in the assay with LOX IMVI, in the assay with SK-MEL-2, with SNB-75, in the assay on MDA-N and in the assay with M14 was > 100 µM (inactive) throughout. The GI50 in the assay on Hs-578T is > 74.5 µM (inactive); with MOLT-4 it was > 96.8 µM (inactive); in the assay on HCC 2998, > 100 µM (inactive); in the assay on COLO 205, > 100 µM (inactive); in the assay on T47D it was > 100 µM (inactive); with KM12, > 100 µM (inactive). Besides, the GI50 with EKVX was > 100 µM (inactive); in the assay with NCI-H522 it was > 93.5 µM (inactive); in the assay on OVCAR-3 it was > 100 µM (inactive); with SF-539, > 100 µM (inactive); with U-251 it was > 100 µM (inactive); in the assay with NCI-H226, > 100 µM (inactive). The GI50 in the assay with SK-OV-3 and in the assay with NCI/ADR-RES was > 100 µM (inactive) throughout.

On to `CC(=O)NCC1(c2ccccc2)CCN(CC2COc3ccccc3O2)CC1` (stereo not given) [ACOXATRINE], for which the GI50 with UACC-62 was > 100 µM (inactive); with LOX IMVI, 62.2 µM (inactive); in the assay with SK-MEL-2, > 100 µM (inactive); in the assay with SNB-75, > 100 µM (inactive); in the assay on MDA-N it was > 100 µM (inactive); with M14, > 100 µM (inactive). The GI50 in the assay with Hs-578T, with MOLT-4, in the assay on HCC 2998, with COLO 205, with T47D and with KM12 was > 100 µM (inactive) in each case. The GI50 in the assay on EKVX, in the assay on NCI-H522, with OVCAR-3, in the assay on SF-539, in the assay on U-251 and with NCI-H226 was > 100 µM (inactive) each time. Moreover, the GI50 in the assay on SK-OV-3 and with NCI/ADR-RES was > 100 µM (inactive) each time.

Turning to `Oc1ccc(NCc2cc(O)ccc2O)cc1`, the GI50 in the assay on UACC-62 was 15.4 µM (inactive); in the assay with LOX IMVI it was 17.1 µM (inactive); in the assay with SK-MEL-2, 18.2 µM (inactive); with SNB-75, 17.2 µM (inactive); with MDA-N it was 3.17 µM (inactive); in the assay on M14, 17.8 µM (inactive). Further, the GI50 with Hs-578T is 40.9 µM (inactive); in the assay on MOLT-4, 3.07 µM (inactive); in the assay on HCC 2998 it was 16.9 µM (inactive); in the assay on COLO 205, 23.3 µM (inactive); in the assay with T47D, 19.6 µM (inactive); with KM12, 21.7 µM (inactive). In addition, the GI50 is 15.7 µM (inactive) in the assay on EKVX; 2.06 µM (inactive) in the assay on NCI-H522; 17.3 µM (inactive) in the assay on OVCAR-3; 23.2 µM (inactive) with SF-539; 15.7 µM (inactive) with U-251; 18.9 µM (inactive) in the assay with NCI-H226. Further, the GI50 with SK-OV-3 is 17.8 µM (inactive); in the assay with NCI/ADR-RES it was 18.4 µM (inactive).

`CCN(CC)Cc1nc(C2CCC([N+](=O)[O-])O2)no1` (stereo not given): the GI50 with UACC-62 was 14.8 µM (inactive); with LOX IMVI, 31.4 µM (inactive); in the assay with SK-MEL-2, 21.7 µM (inactive); with SNB-75, 16.6 µM (inactive); in the assay on MDA-N, 17.4 µM (inactive); in the assay on M14, 14.5 µM (inactive). Also, the GI50 is 31.6 µM (inactive) in the assay with Hs-578T; 53.5 µM (inactive) with MOLT-4; 20.6 µM (inactive) in the assay with HCC 2998; 16.6 µM (inactive) in the assay with COLO 205; 27.2 µM (inactive) in the assay with T47D; 26.5 µM (inactive) in the assay with KM12. Further, the GI50 in the assay on EKVX is > 100 µM (inactive); in the assay on NCI-H522 it was 15.9 µM (inactive); with OVCAR-3 it was 23.8 µM (inactive); with SF-539, 28.2 µM (inactive); with U-251, 28.5 µM (inactive); in the assay on NCI-H226, 67.8 µM (inactive). In addition, the GI50 was > 100 µM (inactive) in the assay on SK-OV-3 and 26.7 µM (inactive) in the assay with NCI/ADR-RES.

Consider `O=C(O)c1cc2ccccc2c(O)c1O`, for which the GI50 was 5.98 µM (inactive) in the assay on UACC-62; 3.52 µM (inactive) with LOX IMVI; 1.03 µM (active) in the assay on SK-MEL-2; 17.9 µM (inactive) in the assay with SNB-75; 2.14 µM (inactive) with MDA-N; 4.79 µM (inactive) in the assay with M14. For the same compound, the GI50 with Hs-578T is 8.13 µM (inactive); with MOLT-4, 27.5 µM (inactive); with HCC 2998 it was 18.8 µM (inactive); in the assay on COLO 205 it was 16.8 µM (inactive); with T47D, 25.8 µM (inactive); with KM12, 16.3 µM (inactive). Further, the GI50 in the assay on EKVX is 23.4 µM (inactive); in the assay on NCI-H522, 15.1 µM (inactive); with OVCAR-3, 13.5 µM (inactive); in the assay with SF-539, 22.8 µM (inactive); in the assay on U-251 it was 16.8 µM (inactive); in the assay with NCI-H226 it was 13.7 µM (inactive). In addition, the GI50 with SK-OV-3 was 14.8 µM (inactive); in the assay on NCI/ADR-RES, 19.4 µM (inactive).

`O=C(NN=C1CCCCC1)Nc1ccccc1Cl`: the GI50 in the assay with UACC-62 is 36.8 µM (inactive); in the assay on LOX IMVI, 53.7 µM (inactive); in the assay on SK-MEL-2, 28.6 µM (inactive); in the assay with SNB-75, 2.82 µM (inactive); with MDA-N, 18.1 µM (inactive); in the assay with M14 it was 29.8 µM (inactive). Besides, the GI50 in the assay on Hs-578T is 32 µM (inactive); in the assay on MOLT-4, 47.8 µM (inactive); with HCC 2998, 59.3 µM (inactive); in the assay with COLO 205, 31.3 µM (inactive); in the assay with T47D it was 29.5 µM (inactive); with KM12, 38.3 µM (inactive). The GI50 is 52.8 µM (inactive) in the assay with EKVX; 23.1 µM (inactive) in the assay with NCI-H522; 16.4 µM (inactive) with OVCAR-3; 32.5 µM (inactive) with SF-539; 84.5 µM (inactive) with U-251; 39.9 µM (inactive) in the assay on NCI-H226. For the same compound, the GI50 in the assay on SK-OV-3 is 55.6 µM (inactive); in the assay with NCI/ADR-RES, 24.1 µM (inactive).

As for `Cc1ccc(NC2=NCCO2)c2c1CCC2`, the GI50 with UACC-62 is 30.7 µM (inactive); with LOX IMVI, 22.8 µM (inactive); with SK-MEL-2, 20 µM (inactive); with SNB-75 it was 32.9 µM (inactive); in the assay on MDA-N, 17.6 µM (inactive); with M14, 21 µM (inactive). In addition, the GI50 with Hs-578T is 22.9 µM (inactive); with MOLT-4, 33.9 µM (inactive); with HCC 2998, 32 µM (inactive); with COLO 205, 23.6 µM (inactive); in the assay on T47D, 51.3 µM (inactive); in the assay on KM12, 30.3 µM (inactive). In addition, the GI50 was 48.4 µM (inactive) in the assay on EKVX; 45.8 µM (inactive) with NCI-H522; 21.6 µM (inactive) with OVCAR-3; 22 µM (inactive) in the assay on SF-539; 39.4 µM (inactive) with U-251; 32.4 µM (inactive) in the assay with NCI-H226. Besides, the results for the GI50 in the assay on SK-OV-3 and in the assay on NCI/ADR-RES were 41.5 µM (inactive) and 20.4 µM (inactive), respectively.
